Structures are written as SMILES. Values after ≈ are worked out from the molar mass of the structure shown.

A word on the MIC: it is the smallest concentration in the dilution series that meets the test's criterion for growth inhibition. The low end stands for inhibition by little substance, the high end for a need for much substance.

Tested on in one data set: not listed separately
Kind of data set: Drug degradation assessed as 2-hydroxyethylthio-2,4-dinitrobenzene production at pH 7.4 after 6 hrs in the presence of 2-mercaptoethanol. Type of data set: physicochemical. The following applies: buffer, pH 7.4, 6 h.
`COc1ccc(NS(=O)(=O)c2ccc([N+](=O)[O-])cc2[N+](=O)[O-])cc1`: the Drug degradation entry was “Active”.

The subject of another data set is Mycobacterium tuberculosis. Kind of data set: Antimycobacterial activity against Mycobacterium tuberculosis H37Rv after 28 days. The following applies: 672 h. Type of data set: functional.
On to `COc1ccc(CNS(=O)(=O)c2ccc([N+](=O)[O-])cc2[N+](=O)[O-])cc1`, for which the minimum inhibitory concentration (MIC) amounted to 0.25 µg/mL (≈ 0.681 µM).
Same read-out and setting: next, `O=[N+]([O-])c1ccc(S(=O)(=O)NCc2ccc(Cl)cc2)c([N+](=O)[O-])c1`: 0.4 µg/mL (≈ 1.08 µM); `O=[N+]([O-])c1ccc(S(=O)(=O)NCc2ccc(C(F)(F)F)cc2)c([N+](=O)[O-])c1`: 0.4 µg/mL (≈ 0.987 µM).
As for `O=[N+]([O-])c1ccc(S(=O)(=O)NCc2ccccc2C(F)(F)F)c([N+](=O)[O-])c1`, it took 1.56 µg/mL (≈ 3.85 µM) to inhibit growth (MIC).
As to `COc1ccccc1NS(=O)(=O)c1ccc([N+](=O)[O-])cc1[N+](=O)[O-]`, the MIC was determined as 3.13 µg/mL (≈ 8.86 µM).
Still for that read-out and setting: as for `O=[N+]([O-])c1ccc(S(=O)(=O)Nc2ccc(F)cc2)c([N+](=O)[O-])c1`, the figure is 6.25 µg/mL (≈ 18.3 µM).
For the molecule `N#Cc1ccc(NS(=O)(=O)c2ccc([N+](=O)[O-])cc2[N+](=O)[O-])cc1`, the MIC is above 50 µg/mL.
On the same count and under the same terms, next, `C[C@H](NS(=O)(=O)c1ccc([N+](=O)[O-])cc1[N+](=O)[O-])c1ccccc1`: 1.56 µg/mL (≈ 4.44 µM); `C[C@@H](NS(=O)(=O)c1ccc([N+](=O)[O-])cc1[N+](=O)[O-])c1ccccc1`: 1.56 µg/mL (≈ 4.44 µM).
As to `O=[N+]([O-])c1ccc(S(=O)(=O)NCCc2ccccc2)c([N+](=O)[O-])c1`, the MIC turned out to be 0.4 µg/mL (≈ 1.14 µM). This MIC is about 3.9-fold lower than that of the molecule before.
Same read-out and setting: next, `O=[N+]([O-])c1ccc(S(=O)(=O)N(Cc2ccccc2)c2ccccc2)c([N+](=O)[O-])c1`: 1.56 µg/mL (≈ 3.77 µM); `CN(c1ccccc1)S(=O)(=O)c1ccc([N+](=O)[O-])cc1[N+](=O)[O-]`: 0.78 µg/mL (≈ 2.31 µM).
On the same count and under the same terms, next, `CN(CCc1ccccc1)S(=O)(=O)c1ccc([N+](=O)[O-])cc1[N+](=O)[O-]`: 0.78 µg/mL (≈ 2.13 µM); `O=[N+]([O-])c1ccc(S(=O)(=O)N(CCc2ccccc2)Cc2ccccc2)c([N+](=O)[O-])c1`: 3.13 µg/mL (≈ 7.09 µM).
On the same count and under the same terms, next, `CC[C@@H](CO)NCCN[C@@H](CC)CO` [ETHAMBUTOL]: 1.56 µg/mL (≈ 7.64 µM); `NNC(=O)c1ccncc1` [ISONIAZID]: 0.05 µg/mL (≈ 0.365 µM); `NC(=O)c1cnccn1` [PYRAZINAMIDE]: 6.25 µg/mL (≈ 50.8 µM).

Tested on in the next data set: not listed separately
Nature of the data set: Drug degradation assessed as decrease in compound level at pH 7.4 after 30 mins in the presence of 2-mercaptoethanol. Type of data set: physicochemical. To be noted: buffer, pH 7.4, 0.5 h.
As to `COc1ccc(NS(=O)(=O)c2ccc([N+](=O)[O-])cc2[N+](=O)[O-])cc1`, the Drug degradation entry is “Active”.

These data come from ChEMBL document CHEMBL2029244, “Synthesis and antimycobacterial activity of prodrugs of sulfur dioxide (SO2)” (Bioorg Med Chem Lett, 2012).
